Laboratory results: US9833497B2, “Human originated EGF domain proteins and use of the same” (CHENGDU SOURCEBIO LIMITED-LIABILITY COMPANY, priority 2013, dated 2017)

Tests used:
Assay type in all cases: cell-based
Pseudomonas aeruginosa = experiment: MIC against Gram-negative bacteria: Pseudomonas aeruginosa; details: 5×10^5 CFU/mL
Procedure, shortened: (§1)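 Read-out is absence of bacterial growth, with MIC set at the lowest recombinant protein concentration achieving it. Bacteria, pre-grown in LB to McFarland 0.5 and resuspended, were exposed at 5×10^5 CFU/mL to two-fold diluted human EGF domain proteins in triplicate at 37° C, 175 rpm.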

Klebsiella pneumonia = experiment: MIC against Gram-negative bacteria: Klebsiella pneumonia; details: 5×10^5 CFU/mL
Procedure, shortened: as §1

Moraxella catarrhalis = experiment: MIC against Gram-negative bacteria: Moraxella catarrhalis; details: 5×10^5 CFU/mL
Procedure, shortened: as §1

Enterobacter cloacae = experiment: MIC against Gram-negative bacteria: Enterobacter cloacae; details: 5×10^5 CFU/mL
Procedure, shortened: as §1

Aeromonas hydrophila = experiment: MIC against Gram-negative bacteria: Aeromonas hydrophila; details: 5×10^5 CFU/mL
Procedure, shortened: as §1

Serratia marcescens = experiment: MIC against Gram-negative bacteria: Serratia marcescens; details: 5×10^5 CFU/mL
Procedure, shortened: as §1

Proteus mirabilis = experiment: MIC against Gram-negative bacteria: Proteus mirabilis; details: 5×10^5 CFU/mL
Procedure, shortened: as §1

Proteus vulgaris = experiment: MIC against Gram-negative bacteria: Proteus vulgaris; details: 5×10^5 CFU/mL
Procedure, shortened: as §1

E. coli BL21 = experiment: MIC against Gram-negative bacteria: E. coli BL21; details: 5×10^5 CFU/mL
Procedure, shortened: as §1

Citrobacter diversus = experiment: MIC against Gram-negative bacteria: Citrobacter diversus; details: 5×10^5 CFU/mL
Procedure, shortened: as §1

E. coli DH5α = experiment: Antibacterial activity: MIC and growth curve against E. coli DH5α in 96-well plate; details: minimal inhibitory concentration against E. coli DH5α; 96-well plate, 5×10^5 CFU/mL, 37° C., judged after 8 h
Procedure, shortened: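 Log-phase bacteria (OD600 ~0.5) resuspended in LB at 5×10^5 CFU/mL, exposed to recombinant protein at 50, 25, 12.5 μg/mL final in triplicate, 37 °C shaking at 175 rpm. OD600 read every 30 min; MIC is lowest concentration showing no growth.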

[1] = Pseudomonas aeruginosa, 96-well plate, 37° C., 10 h
[2] = Klebsiella pneumonia, 96-well plate, 37° C., 10 h
[3] = Moraxella catarrhalis, 96-well plate, 37° C., 10 h
[4] = Enterobacter cloacae, 96-well plate, 37° C., 10 h
[5] = Aeromonas hydrophila, 96-well plate, 37° C., 10 h
[6] = Serratia marcescens, 96-well plate, 37° C., 10 h
[7] = Proteus mirabilis, 96-well plate, 37° C., 10 h
[8] = Proteus vulgaris, 96-well plate, 37° C., 10 h
[9] = E. coli BL21, 96-well plate, 37° C., 10 h
[10] = Citrobacter diversus, 96-well plate, 37° C., 10 h
[11] = E. coli BL21, 10 h cultivation at 37° C.
[12] = 10 h cultivation at 37° C., two-fold serial dilution
[13] = Pseudomonas aeruginosa, 10 h cultivation at 37° C.
[14] = Klebsiella pneumonia, 10 h cultivation at 37° C.
[15] = Moraxella catarrhalis, 10 h cultivation at 37° C.
[16] = Enterobacter cloacae, 10 h cultivation at 37° C.
[17] = Aeromonas hydrophila, 10 h cultivation at 37° C.
[18] = Serratia marcescens, 10 h cultivation at 37° C.
[19] = Proteus mirabilis, 10 h cultivation at 37° C.
[20] = Proteus vulgaris, 10 h cultivation at 37° C.
[21] = Citrobacter diversus, 10 h cultivation at 37° C.

PRT88 (HRMDQQCPRGWWGSPTCGPCNCDVHKGFDPNCN; listed as Homo sapiens)
12.5 µg/mL: MIC (μg/mL) M. catarrhalis (Moraxella catarrhalis; [3]) | MIC (μg/mL) E. cloacae (Enterobacter cloacae; [4]) | MIC (μg/mL) A. hydrophila (Aeromonas hydrophila; [5]) | MIC (μg/mL) S. marcescens (Serratia marcescens; [6]) | MIC (μg/mL) E. coli BL21 (E. coli BL21; [9]) | MIC (μg/mL) C. diversus (Citrobacter diversus; [10])
50 µg/mL: MIC (μg/mL) P. aeruginosa (Pseudomonas aeruginosa; [1]) | MIC (μg/mL) P. mirabilis (Proteus mirabilis; [7])
25 µg/mL: MIC (μg/mL) P. vulgaris (Proteus vulgaris; [8]) | MIC (E. coli DH5α)
100 µg/mL: MIC (μg/mL) K. pneumonia (Klebsiella pneumonia; [2])

PRT556 (CQCSSPGVADDRCDPDTGQCRCRVGFEGATCDRCAPGYFHFPLCQL; listed as Homo sapiens)
25 µg/mL: MIC against S. marcescens (Serratia marcescens; 96-well plate, 37° C., 10 h) | MIC against P. mirabilis (Proteus mirabilis; 96-well plate, 37° C., 10 h) | MIC against C. diversus (Citrobacter diversus; 96-well plate, 37° C., 10 h) | MIC (E. coli DH5α)
12.5 µg/mL: MIC against P. aeruginosa (Pseudomonas aeruginosa; 96-well plate, 37° C., 10 h) | MIC against M. catarrhalis (Moraxella catarrhalis; 96-well plate, 37° C., 10 h) | MIC against E. cloacae (Enterobacter cloacae; 96-well plate, 37° C., 10 h) | MIC against P. vulgaris (Proteus vulgaris; 96-well plate, 37° C., 10 h)
50 µg/mL: MIC against K. pneumonia (Klebsiella pneumonia; 96-well plate, 37° C., 10 h) | MIC against A. hydrophila (Aeromonas hydrophila; 96-well plate, 37° C., 10 h) | MIC against E. coli BL21 (E. coli BL21; 96-well plate, 37° C., 10 h)

PRT812 (YGKHCRKKCNCANRGRCHRLYGACLCDPGLYGRFCH; listed as Homo sapiens)
12.5 µg/mL: MIC (μg/mL) P. aeruginosa (Pseudomonas aeruginosa; P. aeruginosa, 10 h cultivation at 37° C.) | MIC (μg/mL) S. marcescens (Serratia marcescens; S. marcescens, 10 h cultivation at 37° C.) | MIC (μg/mL) P. mirabilis (Proteus mirabilis; P. mirabilis, 10 h cultivation at 37° C.) | MIC (μg/mL) E. coli BL21 (E. coli BL21; [11]) | MIC (μg/mL) C. diversus (Citrobacter diversus; C. diversus, 10 h cultivation at 37° C.) | MIC (E. coli DH5α)
25 µg/mL: MIC (μg/mL) K. pneumonia (Klebsiella pneumonia; K. pneumonia, 10 h cultivation at 37° C.) | MIC (μg/mL) A. hydrophila (Aeromonas hydrophila; A. hydrophila, 10 h cultivation at 37° C.)
50 µg/mL: MIC (μg/mL) M. catarrhalis (Moraxella catarrhalis; M. catarrhalis, 10 h cultivation at 37° C.) | MIC (μg/mL) E. cloacae (Enterobacter cloacae; E. cloacae, 10 h cultivation at 37° C.) | MIC (μg/mL) P. vulgaris (Proteus vulgaris; P. vulgaris, 10 h cultivation at 37° C.)

PRT1099 (PSTVCGNEKTNLTCYNGGNCTEFQTELKCMCRPGFTGEWCE; listed as Homo sapiens)
25 µg/mL: MIC P. mirabilis (Proteus mirabilis; [12]) | MIC C. diversus (Citrobacter diversus; [12])
12.5 µg/mL: MIC P. aeruginosa (Pseudomonas aeruginosa; [12]) | MIC M. catarrhalis (Moraxella catarrhalis; [12]) | MIC E. cloacae (Enterobacter cloacae; [12]) | MIC S. marcescens (Serratia marcescens; [12]) | MIC (E. coli DH5α)
50 µg/mL: MIC K. pneumonia (Klebsiella pneumonia; [12]) | MIC A. hydrophila (Aeromonas hydrophila; [12]) | MIC P. vulgaris (Proteus vulgaris; [12]) | MIC E. coli BL21 (E. coli BL21; [12])

PRT1204 (DIDECGTGRHSCANDTICFNLDGGYDCRCPHGKNCT; listed as Homo sapiens)
50 µg/mL: MIC against P. aeruginosa (Pseudomonas aeruginosa; [1]) | MIC against A. hydrophila (Aeromonas hydrophila; [5]) | MIC against P. vulgaris (Proteus vulgaris; [8])
100 µg/mL: MIC (E. coli DH5α)
25 µg/mL: MIC against K. pneumonia (Klebsiella pneumonia; [2]) | MIC against M. catarrhalis (Moraxella catarrhalis; [3]) | MIC against S. marcescens (Serratia marcescens; [6]) | MIC against E. coli BL21 (E. coli BL21; [9]) | MIC against C. diversus (Citrobacter diversus; [10])
12.5 µg/mL: MIC against E. cloacae (Enterobacter cloacae; [4]) | MIC against P. mirabilis (Proteus mirabilis; [7])

PRT1367 (YPACPENCSGHGECVRGVCQCHEDFMSEDCS; listed as Homo sapiens)
50 µg/mL: MIC against M. catarrhalis (Moraxella catarrhalis; [15]) | MIC against A. hydrophila (Aeromonas hydrophila; [17]) | MIC against P. vulgaris (Proteus vulgaris; [20]) | MIC against E. coli BL21 (E. coli BL21; [11])
25 µg/mL: MIC against P. aeruginosa (Pseudomonas aeruginosa; [13]) | MIC against E. cloacae (Enterobacter cloacae; [16]) | MIC against S. marcescens (Serratia marcescens; [18]) | MIC (E. coli DH5α)
12.5 µg/mL: MIC against K. pneumonia (Klebsiella pneumonia; [14]) | MIC against P. mirabilis (Proteus mirabilis; [19]) | MIC against C. diversus (Citrobacter diversus; [21])

PRT1437 (DVNECADGAHPPCHASARCRNTKGGFQCLCADPYELGDDGRTCV; listed as Homo sapiens)
25 µg/mL: MIC against P. mirabilis (Proteus mirabilis; [19]) | MIC against E. coli BL21 (E. coli BL21; [11])
50 µg/mL: MIC against S. marcescens (Serratia marcescens; [18])
12.5 µg/mL: MIC against P. aeruginosa (Pseudomonas aeruginosa; [13]) | MIC against K. pneumonia (Klebsiella pneumonia; [14]) | MIC against M. catarrhalis (Moraxella catarrhalis; [15]) | MIC against E. cloacae (Enterobacter cloacae; [16]) | MIC against A. hydrophila (Aeromonas hydrophila; [17]) | MIC against P. vulgaris (Proteus vulgaris; [20]) | MIC against C. diversus (Citrobacter diversus; [21]) | MIC (E. coli DH5α)
